Measured values published in US9884818B2, “Sulphamoylpyrrolamide derivatives and the use thereof as medicaments for the treatment of hepatitis B” (Janssen Sciences Ireland UC, priority 2013, dated 2018).

Columns and labels:
HBV [1] = assay: Anti-HBV activity, HepG2.2.15 stable transfected cell line, HBV DNA from secreted virions by realtime PCR; type: cell-based
HBV [2] = assay: Anti-HBV activity, HepG2.117 inducibly HBV producing cell line (Tet-off), intracellular HBV DNA by realtime PCR; type: cell-based; details: Hepatitis B virus, HepG2.117, 72 h
[3] = Cytotoxicity in HepG2 cells, Resazurin viability assay; details: human
[4] = Hepatitis B virus, HepG2.2.15, 144 h, HepG2.2.15 cells, 6 days of treatment, HBV DNA from secreted virions, read-out: HepG2 2.15 EC50
[5] = HepG2.117 cells, 3 days of treatment, intracellular HBV DNA, read-out: HepG2 117 EC50
[6] = HepG2 cells, HepG2 4 days CC50 (μM), incubated for 4 days, Resazurin assay

SMILES	EC50 (HBV [1]; [4]) [µM]	EC50 (HBV [2]; [5]) [µM]	CC50 at 4 days [3, 6] [µM]	EC50 (HBV [1]; HepG2.2.15 cells, 6 days of treatment, HBV DNA from secreted virions, read-out: HepG2 2.15 EC50) [µM]	EC50 (HBV [1]; Hepatitis B virus, HepG2.2.15, 144 h, read-out: HepG2 2.15 EC50 (μM)) [µM]	EC50 (HBV [2]; read-out: HepG2 117 EC50 (μM)) [µM]	CC50 at 4 days [3] [µM]
Cn1cc(S(=O)(=O)NC2(C)COC2)cc1C(=O)Nc1cc(Cl)cc(C#N)c1 [Compound 87, N-(3-Chloro-5-cyanophenyl)-1-methyl-4-[(3-methyloxetan-3-yl)sulfamoyl]-1H-pyrrole-2-carboxamide]	0.96	> 1	> 25				
Cn1cc(S(=O)(=O)NC2(C)COC2)cc1C(=O)Nc1ccc(F)c(Cl)c1F [Compound 121, N-(3-Chloro-2,4-difluorophenyl)-1-methyl-4-[(3-methyloxetan-3-yl)sulfamoyl]-1H-pyrrole-2-carboxamide]	0.05	0.04	> 25				
C[C@@H](NS(=O)(=O)c1cn(C)c(C(=O)Nc2cccc(Br)c2)c1F)C(F)(F)F [Compound 280, N-(3-bromophenyl)-3-fluoro-1-methyl-4-[[(1R)-2,2,2-trifluoro-1-methyl-ethyl]sulfamoyl]pyrrole-2-carboxamide]	0.005	0.06	> 25				
C[C@@H](NS(=O)(=O)c1cc(C(=O)Nc2cccc(C(F)(F)F)c2)n(C)c1)C(F)(F)F [Compound 122, 1-methyl-4-[[(1R)-2,2,2-trifluoro-1-methyl-ethyl]sulfamoyl]-N-[3-(trifluoromethyl)phenyl]pyrrole-2-carboxamide]	0.07	> 1	13.1				
Cn1cc(S(=O)(=O)NC(C)(C)C(F)(F)F)cc1C(=O)Nc1cc(F)c(F)c(Cl)c1 [Compound 96, N-(3-Chloro-4,5-difluorophenyl)-1-methyl-4-[(2,2,2-trifluoro-1,1-dimethylethyl)sulfamoyl]-1H-pyrrole-2-carboxamide]	0.01	0.03	23.7				
Cc1c(F)ccc(NC(=O)c2cc(S(=O)(=O)NC3(C(F)(F)F)CC3)cn2C)c1F [Compound 117, N-(2,4-Difluoro-3-methylphenyl)-1-methyl-4-{[1-(trifluoromethyl)-cyclopropyl]sulfamoyl}-1H-pyrrole-2-carboxamide]	0.007	0.01	> 25				
Cn1cc(S(=O)(=O)NC2(C)COC2)cc1C(=O)Nc1ccc(F)c(C(C)(F)F)c1 [Compound 161, N-[3-(1,1-Difluoroethyl)-4-fluorophenyl]-1-methyl-4-[(3-methyloxetan-3-yl)sulfamoyl]-1H-pyrrole-2-carboxamide]	> 1	0.91	> 25				
Cn1cc(S(=O)(=O)NC2(C)COC2)cc1C(=O)Nc1ccc(F)c(Br)c1 [Compound 81]	0.01	0.05	> 25				
Cc1c(F)ccc(NC(=O)c2cc(S(=O)(=O)NC(C)(C)C)cn2C)c1F [Compound 112, 4-(tert-butylsulfamoyl)-N-(2,4-difluoro-3-methyl-phenyl)-1-methyl-pyrrole-2-carboxamide]	0.06	0.09	> 25				
Cc1c(S(=O)(=O)N[C@H](C)C(F)(F)F)cn(C)c1C(=O)Nc1ccc(F)c(Cl)c1F [Compound 210, N-(3-Chloro-2,4-difluorophenyl)-1,3-dimethyl-4-{[(1R)-2,2,2-trifluoro-1-methylethyl]sulfamoyl}-1H-pyrrole-2-carboxamide]	0.05	0.05	> 25				
C[C@H](CO)NS(=O)(=O)c1cc(C(=O)Nc2ccc(F)c(C(F)(F)F)c2)n(C)c1 [Compound 41, N-[4-fluoro-3-(trifluoromethyl)phenyl]-4-[[(1R)-2-hydroxy-1-methyl-ethyl]sulfamoyl]-1-methyl-pyrrole-2-carboxamide]	0.52	0.33	> 25				
CC(C)NS(=O)(=O)c1cn(C)c(C(=O)Nc2ccc(F)c(F)c2F)c1F [Compound 233, 3-Fluoro-1-methyl-4-[(1-methylethyl)sulfamoyl]-N-(2,3,4-trifluorophenyl)-1H-pyrrole-2-carboxamide]	0.09	0.16	> 25				
Cc1cc(NC(=O)c2cc(S(=O)(=O)NC3(CC#N)CC3)cn2C)ccc1F [Compound 18, 4-[[1-(cyanomethyl)cyclopropyl]sulfamoyl]-N-(4-fluoro-3-methyl-phenyl)-1-methyl-pyrrole-2-carboxamide]	< 0.02	0.03	> 25				
Cc1c(S(=O)(=O)N[C@@H](C)C(F)(F)F)cn(C)c1C(=O)Nc1ccc(F)c(Cl)c1 [Compound 147, N-(3-Chloro-4-fluorophenyl)-1,3-dimethyl-4-{[(1S)-2,2,2-trifluoro-1-methylethyl]sulfamoyl}-1H-pyrrole-2-carboxamide]	0.08	0.04	> 25				
CC(CC(F)(F)F)NS(=O)(=O)c1cc(C(=O)Nc2cc(F)c(F)c(Cl)c2)n(C)c1 (single isomer, unassigned) [Compound 169a, N-(3-Chloro-4,5-difluorophenyl)-1-methyl-4-[(3,3,3-trifluoro-1-methylpropyl)sulfamoyl]-1H-pyrrole-2-carboxamide]		0.05	16.1	0.14			
Cc1cc(NC(=O)c2cc(S(=O)(=O)N[C@H](C)CO)cn2C)ccc1F [Compound 3, N-(4-fluoro-3-methyl-phenyl)-4-[[(1R)-2-hydroxy-1-methyl-ethyl]sulfamoyl]-1-methyl-pyrrole-2-carboxamide]	0.07	0.1	> 25				
CC[C@@H](C)NS(=O)(=O)c1cc(C(=O)Nc2cc(C)c(F)c(F)c2)n(C)c1 [Compound 34, N-(3,4-difluoro-5-methyl-phenyl)-1-methyl-4-[[(1R)-1-methylpropyl]-sulfamoyl]pyrrole-2-carboxamide]	0.03	< 0.02	> 25				
Cc1c(S(=O)(=O)N[C@H](C)C(F)(F)F)cn(C)c1C(=O)Nc1ccc(F)c(C#N)c1 [Compound 150, N-(3-Cyano-4-fluorophenyl)-1,3-dimethyl-4-{[(1R)-2,2,2-trifluoro-1-methylethyl]sulfamoyl}-1H-pyrrole-2-carboxamide]	0.09	0.06	> 25				
Cc1cc(NC(=O)c2cc(S(=O)(=O)NC3CC(=O)N(C)C3)cn2C)ccc1F (stereo not drawn) [Compound 13, N-(4-fluoro-3-methyl-phenyl)-1-methyl-4-[(1-methyl-5-oxo-pyrrolidin-3-yl)sulfamoyl]pyrrole-2-carboxamide]	0.46	0.14	> 25				
CNC(=O)C(C)(C)NS(=O)(=O)c1cc(C(=O)Nc2ccc(F)c(C)c2)n(C)c1 [Compound 62, 4-[[1,1-dimethyl-2-(methylamino)-2-oxo-ethyl]sulfamoyl]-N-(4-fluoro-3-methyl-phenyl)-1-methyl-pyrrole-2-carboxamide]	0.27	0.14	> 25				
Cn1cc(S(=O)(=O)NC2(C)COC2)cc1C(=O)Nc1ccc(C#N)c(C(F)(F)F)c1 [Compound 51, N-[4-cyano-3-(trifluoromethyl)phenyl]-1-methyl-4-[(3-methyloxetan-3-yl)-sulfamoyl]-1H-pyrrole-2-carboxamide]					> 1	> 1	> 25
Cn1cc(S(=O)(=O)NC2(C)COC2)c(F)c1C(=O)Nc1ccc(F)c(C(F)F)c1 [Compound 107, N-[3-(Difluoromethyl)-4-fluorophenyl]-3-fluoro-1-methyl-4-[(3-methyloxetan-3-yl)sulfamoyl]-1H-pyrrole-2-carboxamide]	0.01	0.01	> 25				
Cn1cc(S(=O)(=O)NC(C)(C)C)c(Cl)c1C(=O)Nc1ccc(F)c(Cl)c1F [Compound 224, 4-(tert-Butylsulfamoyl)-3-chloro-N-(3-chloro-2,4-difluorophenyl)-1-methyl-1H-pyrrole-2-carboxamide]	0.22	0.26	> 25				
Cn1cc(S(=O)(=O)NC2(C)COC2)cc1C(=O)Nc1cc(F)cc(C#N)c1 [Compound 54, N-(3-cyano-5-fluoro-phenyl)-1-methyl-4-[(3-methyloxetan-3-yl)-sulfamoyl]pyrrole-2-carboxamide]	0.2	0.25	> 25				
C[C@H](NS(=O)(=O)c1cc(C(=O)Nc2ccc(F)c(C#N)c2F)n(C)c1)C(F)(F)F [Compound 196, N-(3-Cyano-2,4-difluorophenyl)-1-methyl-4-{[(1S)-2,2,2-trifluoro-1-methylethyl]sulfamoyl}-1H-pyrrole-2-carboxamide]	0.1	0.08	> 25				
CCC(C)(NS(=O)(=O)c1cc(C(=O)Nc2ccc(F)c(C#N)c2)n(C)c1)C(F)(F)F (stereo not drawn) [Compound 246, N-(3-cyano-4-fluoro-phenyl)-1-methyl-4-{[1-methyl-1-(trifluoro-methyl)propyl]sulfamoyl}-1H-pyrrole-2-carboxamide]	0.05	0.06	> 25				
C[C@@H](NS(=O)(=O)c1cn(C)c(C(=O)Nc2ccc(F)c(C#N)c2)c1Cl)C(F)(F)F [Compound 199, 3-Chloro-N-(3-cyano-4-fluorophenyl)-1-methyl-4-{[(1R)-2,2,2-trifluoro-1-methylethyl]sulfamoyl}-1H-pyrrole-2-carboxamide]	0.006	0.008	> 25				
C[C@@H](NS(=O)(=O)c1cn(C)c(C(=O)Nc2ccc(F)c(C#N)c2)c1C#N)C(F)(F)F [Compound 293, 3-cyano-N-(3-cyano-4-fluoro-phenyl)-1-methyl-4-[[(1R)-2,2,2-trifluoro-1-methyl-ethyl]sulfamoyl]pyrrole-2-carboxamide]	0.02	0.05	> 25				
